{"source": "patent US20130005678A1", "about": "“Methods and Compositions for Treating or Ameliorating Cancer Using Gemcitabine-5'-Elaidate” (CLAVIS PHARMA ASA, priority 2010, published 2013)", "key": {"[1]": {"system": "human colon cancer Co5776", "test": "Antitumor activity in human colon xenograft Co5776", "assay_type": "in vivo", "description": "(§1) Fragments of human colon cancers Co5776 and Co6044 are implanted subcutaneously in NCR female mice (7-8 mice/group). Gemcitabine (120 mg/kg) and gemcitabine-5′-elaidic acid ester (40 mg/kg) are administered intraperitoneally, every third day for five times.\nNCr female mice implanted subcutaneously with human colon carcinoma fragments, Co5776, are treated intraperitoneally. Two different schedules of gemcitabine-5′-elaidic acid ester are administered, once weekly times 2 (Days 11 and 18), and every third day times 5 (Days 11, 14, 17, 20, and 23). Antitumor activity of gemcitabine-5′-elaidic acid ester is similar for 150 mg/kg once weekly, administered twice or 40 mg/kg every third day administered five times."}, "[2]": {"system": "human colon cancer Co6044", "test": "Antitumor activity in human colon xenograft Co6044 (intraperitoneal)", "assay_type": "in vivo", "settings": "intraperitoneally every third day five times", "description": "as §1"}, "Co6044": {"system": "Co6044", "test": "Oral activity and schedule dependency in mice with Co6044", "assay_type": "in vivo, human", "description": "Oral administration of Gemcitabine-5′-elaidic acid ester and gemcitabine is tested in NCr:nu/nu mice for potential antitumor activity. Treatment is every third day repeated five times. In a follow-up experiment, the antitumor activity of oral and intraperitoneal treatment is compared in this colon cancer model (Co6044). The doses for oral treatment with Gemcitabine-5′-elaidic acid ester and gemcitabine are lower (20, 30, or 40 mg/kg) than in the previous experiment.\nIn this experiment, the antitumor activity of oral Gemcitabine-5′-elaidic acid ester in three different administration schedules is compared: every 3 days times 5, daily times 5, and once weekly times 2. Three doses are tested per schedule."}, "[3]": {"system": "Co-26 murine colon cancer cells", "test": "Antitumor effect in Co-26 liver metastasis model", "assay_type": "in vivo", "settings": "single dose 75 mg/kg", "description": "Antitumor effect of single dose of gemcitabine-5′-elaidic acid ester or gemcitabine is tested in Balb/C female mice injected with Co-26 murine colon cancer cells in the spleen (a liver metastasis model). […] The activity of gemcitabine is similar."}, "CEM cells": {"system": "CEM cells", "test": "Intracellular dFdCTP level in CEM cells with or without dipyridamole (HPLC)", "assay_type": "cell-based, human", "description": "hENT1 can inhibited in vitro by various agents including dipyridamole, NBMPR, and NBI. In order to test whether gemcitabine-5′-elaidate entry into the cells is independent of a nucleoside transporter such as hENT1, dipyridamole is used to block hENT1. The intracellular level of dFdCTP is determined in CEM cells after 60 minutes exposure to either dFdC or gemcitabine-5′-elaidate, with or without the addition of dipyridamole (DP). The compounds are administered at 10 μM, and the triphosphates are determined using HPLC. Deamination is blocked using tetrahydrouridine."}, "A549 human NSCLC": {"system": "A549 human NSCLC", "test": "Combination study in vitro, growth inhibition, median effect analysis (A549)", "assay_type": "cell-based", "description": "(§2) The cell lines A549 human NSCLC and WiDr human colon carcinoma are used to determine the combination index and also the effect of Gemcitabine-5′-elaidate on the cell cycle. A sulforhodamine B colorimetric assay is used to determine growth inhibition after 72 hours. Pemetrexed combinations are tested using the MTT assay. Combinations with pemetrexed are also tested in the WiDr-LF cell line, which are WiDr cells cultured under low folate conditions. The IC25 and IC50 values (inhibitory concentrations at 25% or 50%, respectively) are calculated. The IC25 value is used for combinations with serial dilutions of oxaliplatin or docetaxel, and the IC50 value is used for pemetrexed combinations. Median effect analysis is performed."}, "[4]": {"system": "WiDr human colon carcinoma", "test": "Combination study in vitro, growth inhibition, median effect analysis (WiDr)", "assay_type": "cell-based", "description": "as §2"}, "WiDr cell line [5]": {"system": "WiDr cell line", "test": "Platinum accumulation in DNA (WiDr)", "assay_type": "cell-based, human", "settings": "oxaliplatin 200 μM combined with Gemcitabine-5′-elaidate 0.004 μM", "description": "The effect on DNA platinum accumulation in DNA after exposure to oxaliplatin and oxaliplatin combined with Gemcitabine-5′-elaidate (oxaliplatin [200 μM] combined with Gemcitabine-5′-elaidate [0.004 μM]) is also determined."}, "WiDr cell line [6]": {"system": "WiDr cell line", "test": "Cell cycle analysis, flow cytometry with propidium iodide (WiDr)", "assay_type": "cell-based, human", "description": "The effect on cell cycle is determined after 72 h exposure using flow cytometry combined with propidium iodide staining For cell cycle analysis, the concentration range is from 0.0005 μM to 0.05 μM in the A549 cell line and from 0.001 μM to 0.1 μM in the WiDr cell line. […] The effect on cell cycle is obtained also for the combinations with pemetrexed."}, "pancreatic cancer": {"system": "pancreatic cancer", "test": "Treatment of a pancreatic cancer patient with low hENT1 expression", "assay_type": "in vivo, human", "description": "An individual is diagnosed with pancreatic cancer. The patient provides a sample. The sample contains cancerous cells from the patient. The sample comes from a biopsy of the tumor, from circulating tumor cells, or from another source.\nThe sample is tested to determine the level of expression of hENT1 or another nucleoside transporter. The level is detected by immunohistochemistry, by determining the amount of mRNA relevant to hENT1 in the sample, or by other known means.\nThe testing of the sample takes place at a testing facility. The physician or their staff ships the sample to this facility. The sample is fixed or frozen for shipment. The sample is mixed with an antibody prior to shipment and analyzed when it arrives at the facility or the sample is shipped with no antibody added prior to shipment.\nThe nucleoside transporter level is compared to a control. The control is non-cancerous cells from the patient or is samples from another population. The control samples are analyzed at the same time as the sample or the analysis is based upon computer stored data where the comparison is done by using a rule based upon previously collected and characterized control data. This comparison allows for the classification of the sample as a “high,” “low,” or “normal,” sample based upon nucleoside transporter levels. […]"}, "[7]": {"settings": "72 hours, sulforhodamine B assay"}, "[8]": {"settings": "72 h exposure, 0.001 μM to 0.1 μM"}}, "data": [{"compound": "CCCCCCCC/C=C/CCCCCCCC(=O)OC[C@H]1O[C@@H](n2ccc(N)nc2=O)C(F)(F)[C@@H]1O", "note": "[gemcitabine-5′-elaidic acid ester]", "values": [{"measurement": "activity compared with gemcitabine", "setting": "[1]; 40 mg/kg vs gemcitabine 120 mg/kg, intraperitoneally every third day five times", "result": "similar"}, {"measurement": "antitumor effect", "setting": "[1]; NCR female mice, intraperitoneally every third day five times, gemcitabine 120 mg/kg, gemcitabine-5′-elaidic acid ester 40 mg/kg", "result": "Significant antitumor effect"}, {"measurement": "antitumor activity, comparison of schedules", "setting": "[1]; NCr female mice, intraperitoneal, 150 mg/kg once weekly times 2 vs 40 mg/kg every third day times 5", "result": "similar"}, {"measurement": "activity compared with gemcitabine", "setting": "[2]; 40 mg/kg vs gemcitabine 120 mg/kg", "result": "similar"}, {"measurement": "antitumor effect", "setting": "[2]; NCR female mice, gemcitabine 120 mg/kg, gemcitabine-5′-elaidic acid ester 40 mg/kg", "result": "Significant antitumor effect"}, {"measurement": "antitumor activity", "setting": "Co6044; every 3 days times 5, daily times 5, once weekly times 2, all tested schedules", "result": "High antitumor activity"}, {"measurement": "dose dependence of activity", "setting": "Co6044; three doses per schedule", "result": "dose dependent"}, {"measurement": "antitumor activity", "setting": "[3]; Balb/C female mice, Co-26 cells in the spleen", "result": "significant antitumor activity"}, {"measurement": "hematological parameters", "setting": "[3]", "result": "moderate reduction"}, {"measurement": "mean survival in days and Treated/Control (T/C, %) over saline control", "setting": "[3]", "result": "significant increase"}, {"measurement": "dFdCTP levels with inhibitor (DP) compared to without inhibitor", "setting": "CEM cells; 10 μM", "result": "even increased"}, {"measurement": "time of maximum dFdCTP concentration", "setting": "CEM cells; 10 μM, after exposure", "result": "reached at the last time point measured"}, {"measurement": "dFdCTP accumulation with blocked nucleoside transporters (FIG. 3)", "setting": "CEM cells; transporters blocked", "result": "accumulates in cells despite blocking transporters"}, {"measurement": "combination effect with docetaxel", "setting": "A549 human NSCLC; [7]", "result": "antagonistic"}, {"measurement": "combination effect with oxaliplatin", "setting": "A549 human NSCLC; [7]", "result": "synergistic"}, {"measurement": "combination effect with pemetrexed", "setting": "A549 human NSCLC; MTT assay", "result": "Antagonistic activity"}, {"measurement": "combination effect with docetaxel", "setting": "[4]; [7]", "result": "antagonistic"}, {"measurement": "combination effect with oxaliplatin", "setting": "[4]; [7]", "result": "synergistic"}, {"measurement": "combination effect with pemetrexed", "setting": "[4]; MTT assay", "result": "Antagonistic activity"}, {"measurement": "platinum adducts in DNA, oxaliplatin combined vs oxaliplatin alone", "setting": "WiDr cell line [5]", "result": "increase of platinum adducts"}, {"measurement": "G2/M phase, combination with pemetrexed", "setting": "WiDr cell line [6]", "result": "only a marginal increase"}, {"measurement": "S phase accumulation", "setting": "WiDr cell line [6]; [8]", "result": "S phase accumulation at the two highest concentrations"}, {"measurement": "sub G1 accumulation", "setting": "WiDr cell line [6]; [8]", "result": "dose dependent sub G1 accumulation"}, {"measurement": "response to treatment", "setting": "pancreatic cancer", "result": "responds favorably"}]}]}
